Measurements from patent publication US20250268971A1, “SAFFRON AS ANTI-INFLAMMATORY AGENT IN TREATING INFLAMMATORY BOWEL DISEASE” (HOWARD UNIVERSITY, priority 2020, published 2025).

Test system: human PBMCs T cells
Experiment: Human PBMCs T cells pro-inflammatory cytokine secretion (flow cytometry)
Type: cell-based
Description: A 48 well plate was coated with human anti-CD3 antibody (1 μg/ml) overnight. After washing with 1×PBS, plates were coated with human PBMCs (0.5×10^6 cells/well), human anti-CD28 (1 μg/ml), β-mercaptoethanol (1 μg/ml), different concentrations of Saffron aqueous extract (250 μg/ml, 500 μg/ml) and other constituents of saffron, Safranal (500 μM, 1 mM) (Sigma Aldrich, USA). The human PBMCS of 0.5×10^6 cells/well PBMCs were seeded in 48 well microplates in RPMI-1640 (Sigma, USA) supplemented with 10% fetal bovine serum and 1% penicillin/streptomycin at 37° C. and in 5% CO2) (day 0). At day 3, cells were stimulated with phorbol myristate acetate (PMA; 50 ng/ml)+ Ionomycin (1 μg/ml)+ Brefeldin A (1X) for 4 hrs. and cells were harvested and stained for flow cytometry. The human specific antibodies for T cells (dye; Zombi Aqua, CD45 PerCP 5.5, CD3 BV421, CD4 PETR, CD127-PECy7, CD25 BV605, CD8a AF488 and pro-inflammatory cytokines, like TNF-α AF700, IFNg APC, IL4 PE) were used to stain the PBMC cells.
In CD8+ T cells, TNFα+ expression was reduced in presence of SFE dose 500 μg/ml and safranal doses (500 μM, 1 mM) only, while IFNg+ expression was reduced in all tested doses of SFE and safranal in comparison to stimulated human PBMCs treated with media.

SMILES: CC1=C(C=O)C(C)(C)CC=C1 [safranal, Safranal]
- TNFα+ expression in CD8+ T cells (SFE 500 μg/ml only, safranal 500 μM, 1 mM, vs media treated stimulated PBMC): reduced
- TNFα+ in CD4+ T cells (SFE 250 and 500 μg/ml, safranal 500 μM, 1 mM, anti-CD3/CD28, PMA+ionomycin stimulated, vs media): inhibitory response
- IFNg+ in CD4+ T cells (SFE 250 and 500 μg/ml, safranal 500 μM, 1 mM, vs media treated stimulated PBMC): inhibitory response
- IFNg+ expression in CD8+ T cells (all tested doses (SFE 250, 500 μg/ml; safranal 500 μM, 1 mM), vs media): reduced
